Series [1] addresses human Muscarinic M1 receptor (Homo sapiens (Human), UniProt P11229). The series can be described thus: Allosteric potency EC50 for muscarinic M1 receptor (CHO cells, pCRE-Luc reporter). In kind it is cell-based. The settings on record: luciferase activity, 4 hours. As for the experimental part:
Determination of Allosteric Potency EC50 Values for Muscarinic M1 Receptor:
A stable CHO cell line expressing recombinant human Muscarinic M1 receptor and pCRE-Luc reporter system was used for cell-based assay. The assay offers a non-radioactive based approach to determine binding of a compound to GPCRs. In this specific assay, the level of intracellular cyclic AMP which is modulated by activation or inhibition of the receptor is measured. The recombinant cells harbor luciferase reporter gene under the control of cAMP response element.
The above cells were grown in 96 well clear bottom white plates in Hams F12 medium containing 10% fetal bovine serum (FBS). Prior to the addition of compounds or standard agonist, cells were serum starved overnight. Increasing concentrations of test compounds were added along with EC20 of acetylcholine in OptiMEM medium to the cells. The incubation was continued at 37° C. in CO2 incubator for 4 hours. Medium was removed and cells were washed with phosphate buffered saline. The cells were lysed and luciferase activity was measured in a Luminometer. Luminescence units were plotted against the compound concentrations using Graphpad software. EC50 values of the compounds were defined as the concentration required in stimulating the luciferase activity by 50% in presence of EC20 of acetylcholine and the results are provided in table 1.

Series [2] is described as follows: Rodent brain penetration study. It counts as in vivo, Male Wistar rats. The settings on record: male, Wistar, rat, oral; 3 mg/kg, p.o.; brain-plasma ratio; read-out: Single dose Rat Brain Penetration (Cb/Cp). As for the experimental part: WO2015044072A1 patent application discloses indole derivatives as M1 PAM compounds. […] This makes these compounds less ideal for the treatment of CNS disorders.
Rodent Brain Penetration Study
Male Wistar rats (260±40 grams) were used as experimental animals. Three animals were housed in each cage. Animals were given water and food ad libitum throughout the experiment and maintained on a 12 hours light/dark cycle.
Brain penetration was determined in discrete manner in rats. One day prior to dosing day, male Wistar rats were acclimatized and randomly grouped according to their weight. At each time point (0.5, 1 and 2 hours) n=3 animals were used.
The test compounds were suitably preformulated and administered orally at (free base equivalent) 3 mg/kg. Blood samples were removed via cardiac puncture by using isoflurane anesthesia. The animals were sacrificed to collect brain tissue. Plasma was separated and brain samples were homogenized and stored frozen at ˜20° C. until analysis. The concentrations of the test compounds in plasma and brain were determined using LC-MS/MS method.
The test compounds were quantified in plasma and brain homogenate by qualified LC-MS/MS method using suitable extraction technique. The test compounds were quantified in the calibration range of 1-500 ng/mL in plasma and brain homogenate. Study samples were analyzed using calibration samples in the batch and quality control samples spread across the batch.

In series [3] the test system is Male Wistar rats. The series is described as follows: Object recognition task model. It counts as in vivo. The settings on record: 3 mg/kg, p.o. As for the experimental part: Object Recognition Task Model
The cognition enhancing properties of compounds of this invention were estimated by using this model.
Male Wistar rats (8-10 weeks old) were used as experimental animals. Four animals were housed in each cage. Animals were kept on 20% food deprivation from a day prior to experimentation. Water was provided ad libitum throughout the experiment. Animals were maintained on a 12 hours light/dark cycle in temperature and humidity controlled room. The experiment was carried out in an open field made up of acrylic. Rats were habituated to individual arenas (open field) for 1 hour in the absence of any objects on day 1.
One group of 12 rats received vehicle and another set of animals received compound of the formula (I), before the familiar (T1) and choice (T2) trials. During the familiarization phase, (T1), the rats were placed individually in the arena for 3 minutes, in which two identical objects (a1 and a2) were positioned 10 cm from the wall. 24 hours after T1, trial for long-term memory test was performed. The same rats were placed in the same arena as they were placed in T1 trial. During the choice phase (T2) rats were allowed to explore the arena for 3 minutes in presence of a copy of familiar object (a3) and one novel object (b). During the T1 and T2 trial, explorations of each object (defined as sniffing, licking, chewing or having moving vibrissae whilst directing the nose towards the object at a distance of less than 1 cm) were recorded using stopwatch. • T1 is the total time spent exploring the familiar objects (a1+a2). • T2 is the total time spent exploring the familiar object and novel object (a3+b). • Discriminative index=Time spent with novel object/(time spent with novel and familiar object).
The object recognition test was performed as described by Behavioural Brain Research, 1988, 31, 47-59 and the results are provided in table 5.

A short description of series [4]: Protein binding assay (HT dialysis), rat matrices. The settings on record: Mean ± SEM. It counts as in vitro ADME. As for the experimental part: (§1) Unbound fractions of new chemical entities in plasma, brain homogenate and liver microsomes were determined using high-throughput dialysis (HT dialysis). Briefly, dialysis membranes were soaked in deionized water for 20 minutes and then in deionized water with 30% ethanol for 15 minutes and finally in phosphate buffer until use. Membranes were rinsed in phosphate buffer before assembling. The membranes were layered between teflon bars of dialysis assembly. Stock solutions of test compounds were prepared at 10 mM in DMSO, diluted to 1 mM in acetonitrile and further diluted to 100 μM in mixture of water and acetonitrile (1:1 v/v). Human plasma (pool of 3) was prepared from human blood (3 donors) by centrifuging at 4000 rpm for 10 min at 4° C. Rat and dog blood were obtained on the day of the study and centrifuged to obtain plasma. Rat brains were isolated, cleaned and homogenized with 2 volumes of buffer (3 fold dilution). Liver microsomes were prepared at 0.5 mg/mL in phosphate buffer (100 mM, pH 7.4). The dialysate chambers were loaded with 150 μL of 100 mM phosphate buffer (pH 7.4) in triplicates. The matrix chambers were loaded with 150 μL of the plasma or brain homogenate or microsomal suspension spiked with test compounds at a final concentration of 1 μM. 50 μL of the sample was removed from both the chambers at 0 h. The plate was sealed and incubated at 37° C. for 6 h at 100 rpm. After 6 h, 50 μL of the sample was removed from both the chambers. Equal volumes of buffer or human plasma/microsomal suspension were added to the plasma/microsomal and buffer samples respectively to create identical sample matrices for analysis. The samples were precipitated with 150 μL of acetonitrile containing fluoxetine as an internal standard. All the samples were centrifuged at 10000 rpm for 10 minutes at 4° C.

Series [5] in a line: Protein binding assay (HT dialysis), dog matrices. It counts as in vitro ADME. The settings on record: Mean ± SEM. The procedure: as §1
Series [6] in a line: Protein binding assay (HT dialysis), human matrices. In kind it is in vitro ADME. The following applies: Mean ± SEM. The procedure:
as §1

The nature of series [7]: Rodent pharmacokinetic study. It counts as in vivo, Male Wistar rats. The following applies: male, Wistar. As for the experimental part:
Rodent Pharmacokinetic Study
Male Wistar rats (260±50 grams) were used as experimental animals. Animals were housed individually in polypropylene cage. Two days prior to study, male Wistar rats were anesthetized with isoflurane for surgical placement of jugular vein catheter. Rats were randomly divided for oral (3 mg/kg) and intravenous (i.v.) (1 mg/kg) dosing (n=3/group) and fasted overnight before oral dosing (p.o.). However, rats allocated to intravenous dosing food and water was provided ad libitum.
At pre-determined point, blood was collected through jugular vein and replenished with an equivalent volume of normal saline. Collected blood was transferred into a labeled eppendorf tube containing 10 μL of heparin as an anticoagulant. Typically blood samples were collected at following time points: 0.08, 0.25, 0.5, 1, 2, 4, 6, 8, and 24 hours post dose. Blood was centrifuged at 4000 rpm for 10 minutes. Plasma was separated and stored frozen at −80° C. until analysis. The concentrations of the test compounds were quantified in plasma by qualified LC-MS/MS method using suitable extraction technique. The test compounds were quantified in the calibration range around 1-1000 ng/mL in plasma. Study samples were analyzed using calibration samples in the batch and quality control samples spread across the batch.
Pharmacokinetic parameters Cmax, AUCt, T1/2, Clearance, and Bioavailability (% F) were calculated by non-compartmental model using standard non-compartmental model by using Phoenix WinNonlin 6.0.2 or 6.0.3 version Software package and the results are tabulated in table 3.

For series [8] the following is noted: cited from earlier work.
Where [9] appears, read: hM1 PAM EC50, in presence of EC20 of acetylcholine.
Setting [10] is: mean ± S.E.M, choice trial 24 hours after T1.
[11] abbreviates: in presence of EC20 of acetylcholine, read-out: hM1 PAM EC50.

SMILES strings stand for the structures. Where a name gives a salt, the structure may show the parent alone. Read-outs that look alike come from different tables or passages of the source.

In the case of `O=C(N[C@H]1CCNC[C@H]1F)c1cn(Cc2ccc(F)cc2)c2cccc(F)c12` (single isomer, unassigned; isomer-i) [Example 30, cis-N-(3-Fluoropiperidin-4-yl)-1-(4-fluorobenzyl)-4-fluoro-1H-indole-3-carboxamide hydrochloride (Isomer-I)], the EC50 – broadly, the midpoint of the concentration-response curve – in series [1] (setting [9]) turned out to be 1080 nM. Moreover, the Kp in series [2] is 1.05 ± 0.53.

On to `COc1cccc(Cn2cc(C(=O)N[C@H]3CCNC[C@H]3F)c3c(F)cccc32)c1` (single isomer, unassigned; isomer-i) [Example 35, cis-N-(3-Fluoropiperidin-4-yl)-4-fluoro-1-(3-methoxybenzyl)-1H-indole-3-carboxamide hydrochloride (Isomer-I)], for which the EC50 in series [1] (setting [9]) was found to be 1480 nM. Also, the Kp in series [2] stood at 0.72 ± 0.03.

Consider `COc1ccc(Cn2cc(C(=O)N[C@H]3CCNC[C@H]3F)c3c(F)cccc32)cc1` (single isomer, unassigned; isomer-i) [Example 38, cis-N-(3-Fluoropiperidin-4-yl)-1-(4-methoxybenzyl)-4-fluoro-1H-indole-3-carboxamide hydrochloride (Isomer-I)], for which the EC50 in series [1] (setting [9]) amounted to 1450 nM. In series [2], the Kp turned out to be 1.03 ± 0.17.

With `O=C(N[C@H]1CCCC[C@@H]1O)c1cn(Cc2ccnc(Cl)c2)c2c(F)ccc(F)c12` [Example 6, N-[(1S,2S)-2-Hydroxycyclohexyl]-1-(2-Chloropyridin-4-ylmethyl)-4,7-difluoro-1H-indole-3-carboxamide], in series [3], the Inference entry is on record as “Active”. Moreover, in series [3] (setting [10]), the “Exploration time Familiar object” value came to 15.75 ± 1.71 s. Also, the “Exploration time Novel object” value in series [3] (setting [10]) came out at 23.67 ± 2.62 s. Also, the fraction unbound at 6 h, 1 μM was 0.014 ± 0.001 in series [4] (pH 7.4, Rat brain homogenate, 37° C., n = 3, read-out: Fu Brain); 0.56 ± 0.048 in series [4] (pH 7.4, Rat liver microsomes 0.5 mg/mL, n = 3, read-out: Fu Microsomes); 0.05 ± 0.008 in series [4] (pH 7.4, Rat plasma, 37° C., n = 3, read-out: Fu Plasma); 0.713 ± 0.041 in series [5] (pH 7.4, Dog liver microsomes 0.5 mg/mL, n = 3, read-out: Fu Microsomes); 0.043 ± 0.002 in series [5] (pH 7.4, Dog plasma, 37° C., n = 3, read-out: Fu Plasma); 0.546 ± 0.018 in series [6] (pH 7.4, Human liver microsomes 0.5 mg/mL, n = 3, read-out: Fu Microsomes). For the same compound, the fraction unbound at 6 h, 1 μM in series [6] (pH 7.4, Human plasma, 37° C., n = 3, read-out: Fu Plasma) came out at 0.03 ± 0.003. In series [1] (setting [11]), the EC50 was 122 nM. For the same compound, the Kp in series [2] is 2.09 ± 0.46.

Regarding `O=C(N[C@H]1CCCC[C@@H]1O)c1cn(Cc2ccncc2F)c2c(F)ccc(F)c12` [Example 10, N-[(1S,2S)-2-Hydroxycyclohexyl]-1-(5-fluoropyridin-4-ylmethyl)-4,7-difluoro-1H-indole-3-carboxamide], in series [1] (setting [11]), the EC50 is 940 nM. Besides, the Kp in series [2] was 2.4 ± 0.3.

For the compound `O=C(N[C@H]1CCCC[C@@H]1O)c1cn(Cc2cc(F)ncc2F)c2cccc(F)c12` [Example 11, N-[(1S,2S)-2-Hydroxycyclohexyl]-1-(2,5-difluoropyridin-4-ylmethyl)-4-fluoro-1H-indole-3-carboxamide], the EC50 in series [1] (setting [11]) amounted to 1530 nM. The Kp in series [2] turned out to be 1.59 ± 0.35.

`O=C(N[C@H]1CCCC[C@@H]1O)c1cn(Cc2cc(F)ncc2F)c2c(F)ccc(F)c12` [Example 12, N-[(1S,2S)-2-Hydroxycyclohexyl]-1-(2,5-difluoropyridin-4-ylmethyl)-4,7-difluoro-1H-indole-3-carboxamide]: in series [7] (iv, 1 mg/kg, rat plasma), the AUC(0-t) (in general, the area under the concentration-time curve up to a stated or last time point) was found to be 609 ± 62 ng·h/mL and the half-life (usually the time in which the quantity being followed falls by half) was 1.6 ± 0.5 h. For the same compound, in series [7] (plasma, iv, 1 mg/kg, rat), the clearance (commonly the rate of elimination divided by the concentration) was 26.7 ± 3.4 mL/min/kg. In addition, the bioavailability (usually dose-corrected exposure relative to a reference, in per cent) in series [7] (plasma, oral 3 mg/kg vs i.v. 1 mg/kg, rat, read-out: % F (Bioavailability)) is 62 ± 6%. For the same compound, in series [7] (oral, 3 mg/kg, rat plasma), the AUC(0-t) was 1140 ± 114 ng·h/mL, the highest level (Cmax) was 337 ± 141 ng/mL and the half-life was 3 ± 3 h. In addition, in series [1] (setting [11]), the EC50 was determined as 432 nM. The Kp in series [2] turned out to be 1.64 ± 0.12.

As for `O=C(N[C@H]1CCCC[C@@H]1O)c1cn(Cc2cnn(CCF)c2)c2cccc(F)c12` [Example 19, N-[(1S,2S)-2-Hydroxycyclohexyl]-1-(1-(2-fluoroethyl)-1H-pyrazol-4-ylmethyl)-4-fluoro-1H-indole-3-carboxamide], in series [1] (setting [11]), the EC50 came to 744 nM.

As for `CCCCCCOc1nsnc1C1=CCCN(C)C1` [Xanomeline], the effects on cognition result in series [8] (clinical Alzheimer's disease (AD) trial) is listed as “significant effects on cognition”. In addition, the gastrointestinal side effects result in series [8] (clinical trials) is given as “gastrointestinal side effects led to a high dropout rate”.

The record behind these values is patent US10294217B2, “Fluoroindole derivatives as muscarinic M1 receptor positive allosteric modulators” (Suven Life Sciences Limited, priority 2015, dated 2019).
